From ChEMBL document CHEMBL1134975, “3-Hydroxy-4-methyl-5-pentyl-2-iminopyrrolidine: a potent and highly selective inducible nitric oxide synthase inhibitor” (Bioorg Med Chem Lett, 2002) come the findings set out here.

Test [1] has as its target Nitric oxide synthase 1 (Homo sapiens, UniProt P29475). Briefly: Inhibitory concentration against Neuronal nitric oxide synthase.
The target in test [2] is T1, Nitric oxide synthase 3 (Homo sapiens, UniProt P29474).
T1 sequence (P29474 whole entry): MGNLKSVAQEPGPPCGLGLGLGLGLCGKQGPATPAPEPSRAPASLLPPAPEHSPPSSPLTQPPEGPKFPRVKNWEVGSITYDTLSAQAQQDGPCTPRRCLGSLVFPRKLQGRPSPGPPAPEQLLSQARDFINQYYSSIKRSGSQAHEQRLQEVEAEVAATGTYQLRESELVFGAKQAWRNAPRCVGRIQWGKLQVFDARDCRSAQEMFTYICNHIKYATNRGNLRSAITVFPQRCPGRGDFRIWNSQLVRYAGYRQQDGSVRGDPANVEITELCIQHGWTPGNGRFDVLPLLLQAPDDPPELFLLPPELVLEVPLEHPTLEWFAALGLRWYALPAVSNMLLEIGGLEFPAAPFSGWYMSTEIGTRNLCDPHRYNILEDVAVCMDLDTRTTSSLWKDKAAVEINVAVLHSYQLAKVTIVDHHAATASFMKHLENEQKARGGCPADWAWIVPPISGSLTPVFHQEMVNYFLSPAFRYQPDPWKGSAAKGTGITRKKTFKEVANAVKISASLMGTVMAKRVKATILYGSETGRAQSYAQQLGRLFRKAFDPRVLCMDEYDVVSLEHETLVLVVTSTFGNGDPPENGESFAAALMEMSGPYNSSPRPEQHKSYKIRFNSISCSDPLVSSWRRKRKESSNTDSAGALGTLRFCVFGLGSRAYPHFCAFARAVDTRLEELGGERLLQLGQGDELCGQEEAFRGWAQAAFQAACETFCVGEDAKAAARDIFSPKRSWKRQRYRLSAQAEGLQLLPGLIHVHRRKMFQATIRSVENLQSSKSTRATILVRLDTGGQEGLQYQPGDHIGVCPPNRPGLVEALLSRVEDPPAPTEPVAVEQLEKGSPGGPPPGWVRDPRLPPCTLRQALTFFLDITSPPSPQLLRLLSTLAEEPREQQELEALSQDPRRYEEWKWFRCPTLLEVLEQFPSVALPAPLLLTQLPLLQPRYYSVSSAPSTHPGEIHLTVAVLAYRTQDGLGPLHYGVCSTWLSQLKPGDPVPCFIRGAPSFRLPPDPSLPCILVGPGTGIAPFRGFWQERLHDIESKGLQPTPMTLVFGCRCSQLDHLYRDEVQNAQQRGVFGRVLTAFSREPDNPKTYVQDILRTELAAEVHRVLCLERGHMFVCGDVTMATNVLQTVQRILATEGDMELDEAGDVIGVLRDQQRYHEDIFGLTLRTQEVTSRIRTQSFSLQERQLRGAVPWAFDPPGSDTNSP
Put plainly: Inhibitory activity against Endothelial nitric oxide synthase.

Test [3] deals with Nitric oxide synthase, inducible (Homo sapiens, UniProt P35228). Briefly: Inhibitory concentration against Inducible nitric oxide synthase (iNOS).
Chain of Nitric oxide synthase, inducible (P35228 whole entry): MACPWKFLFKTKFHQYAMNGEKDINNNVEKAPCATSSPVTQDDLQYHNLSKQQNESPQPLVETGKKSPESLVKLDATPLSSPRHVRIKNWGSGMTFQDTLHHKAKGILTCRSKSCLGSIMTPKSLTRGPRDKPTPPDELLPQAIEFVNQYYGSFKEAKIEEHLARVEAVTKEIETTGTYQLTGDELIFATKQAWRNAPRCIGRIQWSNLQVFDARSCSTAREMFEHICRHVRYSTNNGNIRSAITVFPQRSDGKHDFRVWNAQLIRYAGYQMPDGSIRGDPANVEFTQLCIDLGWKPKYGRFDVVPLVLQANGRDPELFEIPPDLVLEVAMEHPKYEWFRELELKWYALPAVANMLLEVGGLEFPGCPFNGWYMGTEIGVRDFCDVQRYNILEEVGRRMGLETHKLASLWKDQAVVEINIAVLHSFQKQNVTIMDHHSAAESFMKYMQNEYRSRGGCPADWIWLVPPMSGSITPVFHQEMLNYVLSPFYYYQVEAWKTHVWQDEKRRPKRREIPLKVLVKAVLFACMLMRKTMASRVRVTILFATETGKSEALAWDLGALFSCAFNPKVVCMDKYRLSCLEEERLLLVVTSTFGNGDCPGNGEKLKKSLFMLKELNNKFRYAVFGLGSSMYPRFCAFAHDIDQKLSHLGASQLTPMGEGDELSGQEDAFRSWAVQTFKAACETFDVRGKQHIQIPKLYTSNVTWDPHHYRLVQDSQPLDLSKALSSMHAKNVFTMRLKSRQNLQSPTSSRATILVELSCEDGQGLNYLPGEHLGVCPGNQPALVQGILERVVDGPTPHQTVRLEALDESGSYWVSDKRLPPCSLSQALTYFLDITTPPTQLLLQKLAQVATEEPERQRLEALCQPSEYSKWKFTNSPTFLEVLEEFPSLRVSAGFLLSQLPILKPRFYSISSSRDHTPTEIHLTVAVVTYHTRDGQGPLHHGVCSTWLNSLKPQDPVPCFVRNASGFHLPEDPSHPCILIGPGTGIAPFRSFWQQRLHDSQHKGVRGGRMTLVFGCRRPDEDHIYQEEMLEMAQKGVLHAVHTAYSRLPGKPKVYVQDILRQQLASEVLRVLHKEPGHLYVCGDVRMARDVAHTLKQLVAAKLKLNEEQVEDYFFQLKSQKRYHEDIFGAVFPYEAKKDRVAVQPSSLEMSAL
The target in test [4] is T1, Nitric oxide synthase 3. Put plainly: Inhibitory concentration against Endothelial nitric oxide synthase.

Chain of Nitric oxide synthase 1 (P29475 whole entry): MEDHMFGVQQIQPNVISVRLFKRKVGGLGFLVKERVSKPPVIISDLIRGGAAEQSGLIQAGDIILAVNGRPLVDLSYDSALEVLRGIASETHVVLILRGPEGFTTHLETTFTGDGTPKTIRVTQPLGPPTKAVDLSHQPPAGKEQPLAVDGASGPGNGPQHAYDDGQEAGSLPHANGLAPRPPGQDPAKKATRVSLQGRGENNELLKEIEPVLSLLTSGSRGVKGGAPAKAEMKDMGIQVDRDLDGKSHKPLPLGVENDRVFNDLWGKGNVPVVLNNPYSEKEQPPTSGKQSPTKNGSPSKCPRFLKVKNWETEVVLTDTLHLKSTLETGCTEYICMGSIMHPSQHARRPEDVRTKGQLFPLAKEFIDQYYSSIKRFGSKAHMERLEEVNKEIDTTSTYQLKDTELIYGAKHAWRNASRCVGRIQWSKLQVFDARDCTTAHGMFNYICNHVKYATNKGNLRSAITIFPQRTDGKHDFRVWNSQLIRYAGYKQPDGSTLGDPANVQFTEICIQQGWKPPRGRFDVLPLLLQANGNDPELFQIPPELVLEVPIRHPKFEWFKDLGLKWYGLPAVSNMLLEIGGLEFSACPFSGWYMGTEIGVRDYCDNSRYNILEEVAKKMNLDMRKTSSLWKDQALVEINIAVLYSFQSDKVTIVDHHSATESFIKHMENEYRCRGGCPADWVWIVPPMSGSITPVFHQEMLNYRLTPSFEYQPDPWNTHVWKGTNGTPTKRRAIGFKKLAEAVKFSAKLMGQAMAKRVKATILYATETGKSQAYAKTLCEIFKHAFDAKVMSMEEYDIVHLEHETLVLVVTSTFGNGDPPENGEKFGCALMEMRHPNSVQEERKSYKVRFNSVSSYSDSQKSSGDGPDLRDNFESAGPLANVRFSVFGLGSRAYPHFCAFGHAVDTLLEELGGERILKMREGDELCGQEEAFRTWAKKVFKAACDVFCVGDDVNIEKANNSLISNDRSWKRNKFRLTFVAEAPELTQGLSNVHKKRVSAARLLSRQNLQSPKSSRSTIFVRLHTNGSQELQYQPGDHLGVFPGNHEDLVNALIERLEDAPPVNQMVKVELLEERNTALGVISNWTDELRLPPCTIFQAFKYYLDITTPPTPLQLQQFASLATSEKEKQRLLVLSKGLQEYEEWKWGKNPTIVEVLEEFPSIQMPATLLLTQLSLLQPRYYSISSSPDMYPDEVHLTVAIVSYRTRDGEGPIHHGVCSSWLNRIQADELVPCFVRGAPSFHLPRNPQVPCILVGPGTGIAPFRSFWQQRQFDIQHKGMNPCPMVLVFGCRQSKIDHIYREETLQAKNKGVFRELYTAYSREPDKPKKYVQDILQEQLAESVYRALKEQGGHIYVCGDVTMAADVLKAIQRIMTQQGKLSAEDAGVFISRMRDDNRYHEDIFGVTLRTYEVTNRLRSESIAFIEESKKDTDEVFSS

In general, IC50 refers to the concentration that inhibits the measured activity by half. In the case of `CCCCC[C@H]1NC(=N)[C@@H](O)[C@H]1C`, the figures for the IC50 in test [1], in test [2] and in test [3] were 27 µM, 1980 µM and 0.78 µM, respectively.
Turning to `CCCCC[C@@H]1N=C(N)[C@H](O)[C@@H]1C`, the half-inhibitory concentration (IC50) in test [4] was found to be 2930 µM; in test [1] it was 49 µM; in test [3] it was 2.8 µM.
For the compound `CCCCC[C@H]1N=C(N)[C@H](O)[C@H]1C`, the IC50 in test [4] was determined as 695 µM; in test [1], 8.9 µM; in test [3] it was 1.8 µM.
Turning to `CCCCC[C@H]1NC(=N)C[C@H]1C`, the figures for the IC50 in test [1], in test [2] and in test [3] were 3.2 µM, 226 µM and 0.25 µM, respectively.
Turning to `CCCCC[C@@H]1N=C(N)[C@@H](O)[C@@H]1C`, the half-inhibitory concentration (IC50) in test [4] was determined as 930 µM; in test [1] it was 20 µM; in test [3] it was 1.8 µM.
Turning to `CCCCC[C@H]1NC(=N)C[C@H]1C` (single isomer, unassigned), the values for the IC50 in test [1], in test [2] and in test [3] were 21 µM, 578 µM and 4.5 µM, respectively.
